Results as given in article PMC4490784, “Compensatory induction of MYC expression by sustained CDK9 inhibition via a BRD4-dependent mechanism” (eLife, 2015).

Legend:
Test in all cases: KINOMEscan binding assay
TNK2 = target: T1, TNK2 (Homo sapiens, UniProt Q07912); details: read-out: % Retention on Solid Support
T1 construct: purchased DiscoveRx KINOMEscan
Summary of the method: (§1)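 i-CDK9 at 1 and 10 µM; competition binding against an immobilized active-site probe; >400-kinase panel.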

ERBB4 = target: T2, ERBB4 (Homo sapiens, UniProt Q15303); details: read-out: % Retention on Solid Support
T2 construct: purchased DiscoveRx KINOMEscan
T2 sequence (Q15303 26-1308): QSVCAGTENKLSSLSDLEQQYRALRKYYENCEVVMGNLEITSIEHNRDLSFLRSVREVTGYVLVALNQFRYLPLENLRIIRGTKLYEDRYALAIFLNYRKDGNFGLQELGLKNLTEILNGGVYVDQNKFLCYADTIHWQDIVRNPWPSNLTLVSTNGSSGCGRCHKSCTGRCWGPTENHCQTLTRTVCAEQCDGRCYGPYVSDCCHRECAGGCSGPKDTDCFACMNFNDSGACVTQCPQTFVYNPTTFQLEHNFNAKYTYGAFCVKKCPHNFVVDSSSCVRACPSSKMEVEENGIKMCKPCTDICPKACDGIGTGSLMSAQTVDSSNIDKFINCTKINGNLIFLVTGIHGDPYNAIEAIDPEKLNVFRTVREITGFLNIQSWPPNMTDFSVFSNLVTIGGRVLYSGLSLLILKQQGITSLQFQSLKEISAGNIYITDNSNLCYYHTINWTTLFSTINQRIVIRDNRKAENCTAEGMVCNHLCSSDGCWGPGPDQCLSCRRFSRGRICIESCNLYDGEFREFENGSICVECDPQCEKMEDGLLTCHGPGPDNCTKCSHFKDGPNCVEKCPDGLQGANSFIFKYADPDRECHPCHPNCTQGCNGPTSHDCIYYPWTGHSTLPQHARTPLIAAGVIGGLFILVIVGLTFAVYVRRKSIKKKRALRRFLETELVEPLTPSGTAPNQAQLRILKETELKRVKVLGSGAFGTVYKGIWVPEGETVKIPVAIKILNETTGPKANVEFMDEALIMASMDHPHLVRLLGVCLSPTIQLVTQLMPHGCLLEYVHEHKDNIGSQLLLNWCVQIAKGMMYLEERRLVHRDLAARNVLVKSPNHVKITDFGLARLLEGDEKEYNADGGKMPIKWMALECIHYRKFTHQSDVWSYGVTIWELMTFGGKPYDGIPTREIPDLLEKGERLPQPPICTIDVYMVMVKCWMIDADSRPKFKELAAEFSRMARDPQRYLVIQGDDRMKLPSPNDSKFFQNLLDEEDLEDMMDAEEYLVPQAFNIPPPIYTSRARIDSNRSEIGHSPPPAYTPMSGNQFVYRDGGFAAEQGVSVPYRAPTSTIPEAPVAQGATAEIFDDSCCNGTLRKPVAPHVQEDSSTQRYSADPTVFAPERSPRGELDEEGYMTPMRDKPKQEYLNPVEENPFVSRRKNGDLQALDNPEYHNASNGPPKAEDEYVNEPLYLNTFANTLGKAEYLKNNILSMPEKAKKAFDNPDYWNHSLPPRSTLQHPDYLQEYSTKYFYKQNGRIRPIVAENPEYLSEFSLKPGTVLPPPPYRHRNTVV
Summary of the method: as §1

MAP4K3 = target: T3, MAP4K3 (Homo sapiens, UniProt Q8IVH8)
T3 construct: purchased DiscoveRx KINOMEscan
T3 sequence (Q8IVH8 whole entry): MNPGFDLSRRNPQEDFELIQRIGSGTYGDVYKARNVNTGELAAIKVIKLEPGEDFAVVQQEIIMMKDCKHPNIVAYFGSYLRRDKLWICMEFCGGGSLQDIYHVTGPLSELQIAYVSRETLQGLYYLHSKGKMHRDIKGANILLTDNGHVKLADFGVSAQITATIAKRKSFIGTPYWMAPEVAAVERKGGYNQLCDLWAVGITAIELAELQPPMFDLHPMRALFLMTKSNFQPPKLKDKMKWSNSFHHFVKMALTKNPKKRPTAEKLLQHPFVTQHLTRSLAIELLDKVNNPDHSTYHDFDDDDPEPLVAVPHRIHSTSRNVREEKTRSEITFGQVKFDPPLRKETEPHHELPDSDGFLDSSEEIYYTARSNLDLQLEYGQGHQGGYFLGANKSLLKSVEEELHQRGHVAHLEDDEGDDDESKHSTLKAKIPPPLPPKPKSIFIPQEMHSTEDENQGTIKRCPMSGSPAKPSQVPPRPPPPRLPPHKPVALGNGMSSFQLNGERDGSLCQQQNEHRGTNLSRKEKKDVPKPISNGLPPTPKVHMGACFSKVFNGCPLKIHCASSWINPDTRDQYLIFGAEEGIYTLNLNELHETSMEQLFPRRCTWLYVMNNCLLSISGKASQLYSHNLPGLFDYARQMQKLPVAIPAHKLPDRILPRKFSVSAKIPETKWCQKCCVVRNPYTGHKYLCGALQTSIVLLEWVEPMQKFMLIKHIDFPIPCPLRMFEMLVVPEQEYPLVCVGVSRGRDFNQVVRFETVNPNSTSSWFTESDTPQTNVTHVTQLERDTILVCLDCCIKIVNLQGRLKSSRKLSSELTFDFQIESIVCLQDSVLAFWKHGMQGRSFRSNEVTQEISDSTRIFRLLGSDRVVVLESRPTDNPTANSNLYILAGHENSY
Summary of the method: as §1

DAPK1 = target: T4, DAPK1 (Homo sapiens, UniProt P53355); details: read-out: % Retention on Solid Support
T4 construct: purchased DiscoveRx KINOMEscan
Summary of the method: as §1

KIT(A829P) = target: T5, KIT(A829P) (Homo sapiens, UniProt P10721, A829P); details: 1 µM i-CDK9; read-out: % Retention on Solid Support
T5 construct: purchased DiscoveRx KINOMEscan
Summary of the method: as §1

PDPK1 = target: T6, PDPK1 (Homo sapiens, UniProt O15530); details: read-out: % Retention on Solid Support
T6 construct: purchased DiscoveRx KINOMEscan
T6 sequence (O15530 1-556): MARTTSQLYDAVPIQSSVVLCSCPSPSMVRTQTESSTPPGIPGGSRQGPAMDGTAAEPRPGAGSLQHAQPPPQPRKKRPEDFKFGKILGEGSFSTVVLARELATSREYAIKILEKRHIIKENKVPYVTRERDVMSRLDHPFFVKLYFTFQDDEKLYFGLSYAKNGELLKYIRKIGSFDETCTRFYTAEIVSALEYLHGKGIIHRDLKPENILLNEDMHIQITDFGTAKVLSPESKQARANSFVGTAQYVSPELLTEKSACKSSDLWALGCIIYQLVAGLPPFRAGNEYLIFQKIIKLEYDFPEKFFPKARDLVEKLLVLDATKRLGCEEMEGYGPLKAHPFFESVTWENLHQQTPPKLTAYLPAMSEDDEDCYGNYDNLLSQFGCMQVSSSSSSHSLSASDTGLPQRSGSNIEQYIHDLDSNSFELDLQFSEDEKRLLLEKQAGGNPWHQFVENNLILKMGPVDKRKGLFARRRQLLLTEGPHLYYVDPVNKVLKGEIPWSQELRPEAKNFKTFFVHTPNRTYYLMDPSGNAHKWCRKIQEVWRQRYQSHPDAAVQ
Summary of the method: as §1

CASK = target: T7, CASK (Homo sapiens, UniProt O14936); details: 1 µM i-CDK9; read-out: % Retention on Solid Support
T7 construct: purchased DiscoveRx KINOMEscan
Summary of the method: as §1

CDK5 = target: T8, CDK5 (Homo sapiens, UniProt Q00535); details: read-out: % Retention on Solid Support
T8 construct: purchased DiscoveRx KINOMEscan
T8 sequence (Q00535 whole entry): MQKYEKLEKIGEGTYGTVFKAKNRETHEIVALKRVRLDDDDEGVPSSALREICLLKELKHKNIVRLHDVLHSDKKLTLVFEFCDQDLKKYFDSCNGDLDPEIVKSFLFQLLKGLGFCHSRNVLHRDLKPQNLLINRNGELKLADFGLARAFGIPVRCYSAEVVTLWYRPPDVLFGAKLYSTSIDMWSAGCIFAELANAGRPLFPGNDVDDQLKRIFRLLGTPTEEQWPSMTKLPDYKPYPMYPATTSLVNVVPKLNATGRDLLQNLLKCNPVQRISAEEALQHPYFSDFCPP
Summary of the method: as §1

[1] = target: T9, RSK4(Kin.Dom.1-N-terminal) (Homo sapiens, UniProt Q9UK32)
T9 construct: RSK4(Kin.Dom.1-N-terminal); purchased DiscoveRx KINOMEscan
T9 sequence (Q9UK32 1-400 limits assumed): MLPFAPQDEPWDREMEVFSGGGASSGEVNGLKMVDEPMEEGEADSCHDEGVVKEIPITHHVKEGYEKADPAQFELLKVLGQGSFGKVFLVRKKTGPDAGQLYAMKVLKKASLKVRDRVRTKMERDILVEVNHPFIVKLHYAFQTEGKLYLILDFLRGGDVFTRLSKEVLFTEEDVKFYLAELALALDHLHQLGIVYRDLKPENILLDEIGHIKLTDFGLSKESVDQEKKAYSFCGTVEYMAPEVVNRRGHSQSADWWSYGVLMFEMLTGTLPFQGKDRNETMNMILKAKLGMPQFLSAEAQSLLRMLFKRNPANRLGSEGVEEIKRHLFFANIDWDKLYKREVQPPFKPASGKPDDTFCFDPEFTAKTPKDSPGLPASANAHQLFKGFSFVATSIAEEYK
Summary of the method: as §1

EPHA7 = target: T10, EPHA7 (Homo sapiens, UniProt Q15375); details: read-out: % Retention on Solid Support
T10 construct: purchased DiscoveRx KINOMEscan
Summary of the method: as §1

MAP4K5 = target: T11, MAP4K5 (Homo sapiens, UniProt Q9Y4K4); details: read-out: % Retention on Solid Support
T11 construct: purchased DiscoveRx KINOMEscan
Summary of the method: as §1

DDR1 = target: T12, DDR1 (Homo sapiens, UniProt Q08345); details: read-out: % Retention on Solid Support
T12 construct: purchased DiscoveRx KINOMEscan
Summary of the method: as §1

PIK3CA(M1043I) = target: T13, PIK3CA(M1043I) (Homo sapiens, UniProt P42336, M1043I); details: read-out: % Retention on Solid Support
T13 construct: purchased DiscoveRx KINOMEscan
Summary of the method: as §1

PIK3CD = target: T14, PIK3CD (Homo sapiens, UniProt O00329); details: read-out: % Retention on Solid Support
T14 construct: purchased DiscoveRx KINOMEscan
Summary of the method: as §1

NEK4 = target: T15, NEK4 (Homo sapiens, UniProt P51957); details: 1 µM i-CDK9; read-out: % Retention on Solid Support
T15 construct: purchased DiscoveRx KINOMEscan
Summary of the method: as §1

PIK3CA(H1047L) = target: T16, PIK3CA(H1047L) (Homo sapiens, UniProt P42336, H1047L); details: read-out: % Retention on Solid Support
T16 construct: purchased DiscoveRx KINOMEscan
Summary of the method: as §1

FGFR1 = target: T17, FGFR1 (Homo sapiens, UniProt P11362); details: read-out: % Retention on Solid Support
T17 construct: purchased DiscoveRx KINOMEscan
Summary of the method: as §1

HUNK = target: T18, HUNK (Homo sapiens, UniProt P57058); details: read-out: % Retention on Solid Support
T18 construct: purchased DiscoveRx KINOMEscan
Summary of the method: as §1

[2] = target: T19, EGFR(L747-S752del, P753S) (Homo sapiens, UniProt P00533, DEL747-752/P753S)
T19 construct: purchased DiscoveRx KINOMEscan
Summary of the method: as §1

ERK2 = target: T20, ERK2 (Homo sapiens, UniProt P28482); details: read-out: % Retention on Solid Support
T20 construct: purchased DiscoveRx KINOMEscan
Summary of the method: as §1

MAP4K4 = target: T21, MAP4K4 (Homo sapiens, UniProt O95819); details: read-out: % Retention on Solid Support
T21 construct: purchased DiscoveRx KINOMEscan
Summary of the method: as §1

DLK = target: T22, DLK (Homo sapiens, UniProt Q12852)
T22 construct: purchased DiscoveRx KINOMEscan
T22 sequence (Q12852 whole entry): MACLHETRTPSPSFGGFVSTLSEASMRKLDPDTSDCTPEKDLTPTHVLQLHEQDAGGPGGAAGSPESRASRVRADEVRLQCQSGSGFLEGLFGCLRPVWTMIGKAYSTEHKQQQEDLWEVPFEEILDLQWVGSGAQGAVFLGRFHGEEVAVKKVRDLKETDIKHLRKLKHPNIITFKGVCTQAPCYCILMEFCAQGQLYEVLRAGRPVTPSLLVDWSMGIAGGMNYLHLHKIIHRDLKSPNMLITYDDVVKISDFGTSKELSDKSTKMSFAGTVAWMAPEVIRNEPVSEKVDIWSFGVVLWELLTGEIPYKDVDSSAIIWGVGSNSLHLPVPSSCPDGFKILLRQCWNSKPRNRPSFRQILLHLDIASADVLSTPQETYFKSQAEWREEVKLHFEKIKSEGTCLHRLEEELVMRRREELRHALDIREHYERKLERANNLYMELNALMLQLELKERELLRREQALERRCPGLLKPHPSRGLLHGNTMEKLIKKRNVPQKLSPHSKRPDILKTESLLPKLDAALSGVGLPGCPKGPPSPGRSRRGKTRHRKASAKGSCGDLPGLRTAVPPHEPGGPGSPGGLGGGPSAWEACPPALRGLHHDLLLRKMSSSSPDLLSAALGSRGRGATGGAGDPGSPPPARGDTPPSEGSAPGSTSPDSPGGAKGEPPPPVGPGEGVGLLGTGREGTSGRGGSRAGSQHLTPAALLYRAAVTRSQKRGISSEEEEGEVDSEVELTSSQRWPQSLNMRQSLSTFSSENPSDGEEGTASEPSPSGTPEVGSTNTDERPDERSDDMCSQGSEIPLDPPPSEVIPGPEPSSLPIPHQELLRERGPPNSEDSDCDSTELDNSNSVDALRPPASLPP
Summary of the method: as §1

ADCK4 = target: T23, ADCK4 (Homo sapiens, UniProt Q96D53); details: read-out: % Retention on Solid Support
T23 construct: purchased DiscoveRx KINOMEscan
Summary of the method: as §1

T1 sequence (Q07912 whole entry): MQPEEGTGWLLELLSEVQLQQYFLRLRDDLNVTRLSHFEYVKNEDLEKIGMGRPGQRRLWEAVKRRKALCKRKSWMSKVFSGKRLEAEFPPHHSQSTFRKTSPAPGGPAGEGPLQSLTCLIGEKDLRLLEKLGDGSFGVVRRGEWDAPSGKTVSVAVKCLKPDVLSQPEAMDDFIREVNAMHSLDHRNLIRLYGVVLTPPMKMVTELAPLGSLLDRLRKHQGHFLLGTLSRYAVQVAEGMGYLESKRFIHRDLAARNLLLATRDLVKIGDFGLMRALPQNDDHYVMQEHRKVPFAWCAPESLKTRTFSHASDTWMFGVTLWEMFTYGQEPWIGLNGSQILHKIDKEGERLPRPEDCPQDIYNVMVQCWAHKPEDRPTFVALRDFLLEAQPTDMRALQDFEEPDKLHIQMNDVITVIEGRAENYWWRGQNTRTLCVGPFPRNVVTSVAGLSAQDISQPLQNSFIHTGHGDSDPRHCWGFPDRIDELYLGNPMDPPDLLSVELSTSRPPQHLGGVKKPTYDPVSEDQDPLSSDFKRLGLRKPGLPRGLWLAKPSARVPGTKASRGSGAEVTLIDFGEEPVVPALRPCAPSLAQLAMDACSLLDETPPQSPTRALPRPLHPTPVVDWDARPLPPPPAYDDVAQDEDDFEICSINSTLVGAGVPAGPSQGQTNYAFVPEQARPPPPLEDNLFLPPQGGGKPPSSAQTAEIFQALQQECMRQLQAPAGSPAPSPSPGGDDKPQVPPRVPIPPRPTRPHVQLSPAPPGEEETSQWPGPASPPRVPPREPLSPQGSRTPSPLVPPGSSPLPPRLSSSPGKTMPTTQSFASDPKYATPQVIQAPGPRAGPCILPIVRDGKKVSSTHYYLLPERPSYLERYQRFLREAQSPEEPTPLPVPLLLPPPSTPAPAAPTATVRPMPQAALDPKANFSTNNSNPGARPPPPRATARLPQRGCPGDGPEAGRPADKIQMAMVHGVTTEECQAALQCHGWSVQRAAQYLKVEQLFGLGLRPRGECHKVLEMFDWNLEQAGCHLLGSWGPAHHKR

Structure (SMILES): N[C@H]1CC[C@H](Nc2cc(-c3cccc(NCc4cccc(F)c4)n3)c(Cl)cn2)CC1 [i-CDK9, N2′-(trans-4-aminocyclohexyl)-5′-chloro-N6-(3-fluorobenzyl)-2,4′-bipyridine-2′,6-diamine]
- remaining binding at 1 µM (TNK2; 1 µM i-CDK9): 88%
- remaining binding at 10 µM (TNK2; 10 µM i-CDK9): 99%
- remaining binding at 1 µM (ERBB4; 1 µM i-CDK9): 100%
- remaining binding at 10 µM (ERBB4; 10 µM i-CDK9): 100%
- % Retention on Solid Support (MAP4K3; 1 µM i-CDK9): 85%
- % Retention on Solid Support (MAP4K3; 10 µM i-CDK9): 70%
- remaining binding at 1 µM (DAPK1; 1 µM i-CDK9): 64%
- remaining binding at 10 µM (DAPK1; 10 µM i-CDK9): 100%
- remaining binding at 1 µM (KIT(A829P)): 100%
- remaining binding at 1 µM (PDPK1; 1 µM i-CDK9): 100%
- remaining binding at 10 µM (PDPK1; 10 µM i-CDK9): 90%
- remaining binding at 1 µM (CASK): 100%
- remaining binding at 1 µM (CDK5; 1 µM i-CDK9): 100%
- remaining binding at 10 µM (CDK5; 10 µM i-CDK9): 81%
- % Retention on Solid Support ([1]; 1 µM i-CDK9): 70%
- % Retention on Solid Support ([1]; 10 µM i-CDK9): 100%
- remaining binding at 1 µM (EPHA7; 1 µM i-CDK9): 100%
- remaining binding at 10 µM (EPHA7; 10 µM i-CDK9): 96%
- remaining binding at 1 µM (MAP4K5; 1 µM i-CDK9): 94%
- remaining binding at 10 µM (MAP4K5; 10 µM i-CDK9): 85%
- remaining binding at 1 µM (DDR1; 1 µM i-CDK9): 100%
- remaining binding at 10 µM (DDR1; 10 µM i-CDK9): 92%
- remaining binding at 1 µM (PIK3CA(M1043I); 1 µM i-CDK9): 100%
- remaining binding at 10 µM (PIK3CA(M1043I); 10 µM i-CDK9): 75%
- remaining binding at 1 µM (PIK3CD; 1 µM i-CDK9): 100%
- remaining binding at 10 µM (PIK3CD; 10 µM i-CDK9): 100%
- remaining binding at 1 µM (NEK4): 100%
- remaining binding at 1 µM (PIK3CA(H1047L); 1 µM i-CDK9): 99%
- remaining binding at 10 µM (PIK3CA(H1047L); 10 µM i-CDK9): 100%
- remaining binding at 1 µM (FGFR1; 1 µM i-CDK9): 100%
- remaining binding at 10 µM (FGFR1; 10 µM i-CDK9): 100%
- remaining binding at 1 µM (HUNK; 1 µM i-CDK9): 86%
- remaining binding at 10 µM (HUNK; 10 µM i-CDK9): 52%
- % Retention on Solid Support ([2]; 1 µM i-CDK9): 46%
- % Retention on Solid Support ([2]; 10 µM i-CDK9): 65%
- remaining binding at 1 µM (ERK2; 1 µM i-CDK9): 100%
- remaining binding at 10 µM (ERK2; 10 µM i-CDK9): 100%
- remaining binding at 1 µM (MAP4K4; 1 µM i-CDK9): 65%
- remaining binding at 10 µM (MAP4K4; 10 µM i-CDK9): 19%
- % Retention on Solid Support (DLK; 1 µM i-CDK9): 100%
- % Retention on Solid Support (DLK; 10 µM i-CDK9): 71%
- remaining binding at 1 µM (ADCK4; 1 µM i-CDK9): 99%
- remaining binding at 10 µM (ADCK4; 10 µM i-CDK9): 48%
